Data: patent US9695155B2, “Herbicidal substituted pyrimidinyloxy benzene compounds” (E. I. DU PONT DE NEMOURS AND COMPANY, priority 2013, dated 2017)

Columns and labels:
lambsquarters = assay: Test D preemergence; format: in vivo, Chenopodium album; details: Chenopodium album, pre-emergence, scale 0-100, read-out: Plant response rating, Lambsquarters
Method in brief: (§1)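 Visual ratings from 0 (no effect) to 100 (complete control) relative to untreated plants were taken 7–21 days after treatment. Chemicals in a surfactant-containing solvent mixture were applied preemergence to seeds in silt loam, or postemergence to plants 2–18 cm tall (1–4 leaves) grown in a peat-based potting medium.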

Brazilian crabgrass = assay: Test E postemergence; format: in vivo, Digitaria horizontalis; details: Digitaria horizontalis, post-emergence, read-out: Plant response rating, Crabgrass, Brazil
Method in brief: (§2)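 Response was scored visually on a 0-100 scale (100 = complete control) versus controls after 14 to 21 days in the greenhouse. Test chemicals, formulated with surfactant in a non-phytotoxic solvent mixture, had been applied preemergence to seeds in silt loam soil or postemergence to 1- to 4-leaf plants in potting medium.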

wild mustard = assay: Test D postemergence; format: in vivo, Sinapis arvensis; details: Brassica, post-emergence, scale 0 to 100 (0 no effect, 100 complete control), read-out: Plant response rating, Mustard, Wild
Method in brief: as §1

chamomile = assay: Test D preemergence; format: in vivo, Matricaria inodora; details: Tripleurospermum inodorum, pre-emergence, scale 0-100, read-out: Plant response rating, Chamomile
Method in brief: as §1

field violet = assay: Test D preemergence; format: in vivo, Viola arvensis; details: Viola arvensis, pre-emergence, scale 0-100, read-out: Plant response rating, Field Violet
Method in brief: as §1

spring wheat = assay: Test D postemergence; format: in vivo, Triticum aestivum; details: Triticum aestivum, post-emergence, scale 0 to 100 (0 no effect, 100 complete control), read-out: Plant response rating, Wheat, Spring
Method in brief: as §1

winter wheat = assay: Test D postemergence; format: in vivo, Triticum aestivum; details: Triticum aestivum, post-emergence, scale 0 to 100 (0 no effect, 100 complete control), read-out: Plant response rating, Wheat, Winter
Method in brief: as §1

bromegrass, downy [1] = assay: Test D postemergence; format: in vivo, Bromus tectorum; details: Bromus tectorum, post-emergence, Postemergence, scale 0 to 100 (0 no effect, 100 complete control), read-out: Plant response rating, Bromegrass, Downy
Method in brief: as §1

wild oat = assay: Test D postemergence; format: in vivo, Avena fatua; details: Avena fatua, post-emergence, scale 0 to 100 (0 no effect, 100 complete control), read-out: Plant response rating, Oat, Wild
Method in brief: as §1

cocklebur = assay: Test E preemergence; format: in vivo, Xanthium strumarium; details: for Plant response rating, Cocklebur: scale 0 to 100, 0 no effect, 100 complete control
Method in brief: as §2

field poppy [2] = assay: Test D preemergence; format: in vivo, Papaver rhoeas; details: Papaver rhoeas, pre-emergence, scale 0-100, read-out: Plant response rating, Field Poppy
Method in brief: as §1

bromegrass, downy [3] = assay: Test D preemergence; format: in vivo, Bromus tectorum; details: Bromus tectorum, pre-emergence, scale 0-100, read-out: Plant response rating, Bromegrass, Downy
Method in brief: as §1

field poppy [4] = assay: Test D postemergence; format: in vivo, Papaver rhoeas; details: Papaver rhoeas, post-emergence, scale 0 to 100 (0 no effect, 100 complete control), read-out: Plant response rating, Field Poppy
Method in brief: as §1

N#Cc1cccc(Oc2ncc(Cl)cn2)c1-n1cc(C(F)(F)F)cn1 [Compound 58, 3-[(5-chloro-2-pyrimidinyl)oxy]-2-[4-(trifluoromethyl)-1H-pyrazol-1-yl]benzonitrile]
pest or weed control at 31 g/ha (lambsquarters; 31 g ai/ha): 100% | pest or weed control at 62 g/ha (lambsquarters; 62 g ai/ha): 100% | pest or weed control at 125 g/ha (lambsquarters; 125 g ai/ha): 100% | pest or weed control at 250 g/ha (lambsquarters; 250 g ai/ha): 100% | pest or weed control at 31 g/ha (Brazilian crabgrass; Postemergence, 31 g ai/ha, scale 0 to 100): 20% | pest or weed control at 62 g/ha (Brazilian crabgrass; Postemergence, 62 g ai/ha, scale 0 to 100): 40% | pest or weed control at 125 g/ha (Brazilian crabgrass; Postemergence, 125 g ai/ha, scale 0 to 100): 55% | pest or weed control at 250 g/ha (Brazilian crabgrass; Postemergence, 250 g ai/ha, scale 0 to 100): 75% | pest or weed control at 16 g/ha (Brazilian crabgrass; postemergence, 16 g ai/ha, scale 0 to 100, 0 no effect, 100 complete control): 10% | pest or weed control at 31 g/ha (wild mustard; 31 g ai/ha): 85% | pest or weed control at 62 g/ha (wild mustard; 62 g ai/ha): 100% | pest or weed control at 125 g/ha (wild mustard; 125 g ai/ha): 100% | pest or weed control at 250 g/ha (wild mustard; 250 g ai/ha): 100% | pest or weed control at 31 g/ha (chamomile; 31 g ai/ha): 30% | pest or weed control at 62 g/ha (chamomile; 62 g ai/ha): 50% | pest or weed control at 125 g/ha (chamomile; 125 g ai/ha): 80% | pest or weed control at 250 g/ha (chamomile; 250 g ai/ha): 100% | pest or weed control at 31 g/ha (field violet; 31 g ai/ha): 100% | pest or weed control at 62 g/ha (field violet; 62 g ai/ha): 100% | pest or weed control at 125 g/ha (field violet; 125 g ai/ha): 100% | pest or weed control at 250 g/ha (field violet; 250 g ai/ha): 100% | plant injury at 31 g/ha (spring wheat; 31 g ai/ha): 10% | plant injury at 62 g/ha (spring wheat; 62 g ai/ha): 15% | plant injury at 125 g/ha (spring wheat; 125 g ai/ha): 20% | plant injury at 250 g/ha (spring wheat; 250 g ai/ha): 35% | plant injury at 31 g/ha (winter wheat; 31 g ai/ha): 15% | plant injury at 62 g/ha (winter wheat; 62 g ai/ha): 20% | plant injury at 125 g/ha (winter wheat; 125 g ai/ha): 25% | plant injury at 250 g/ha (winter wheat; 250 g ai/ha): 40% | pest or weed control at 31 g/ha (bromegrass, downy [1]; 31 g ai/ha): 25% | pest or weed control at 62 g/ha (bromegrass, downy [1]; 62 g ai/ha): 30% | pest or weed control at 125 g/ha (bromegrass, downy [1]; 125 g ai/ha): 35% | pest or weed control at 250 g/ha (bromegrass, downy [1]; 250 g ai/ha): 35% | pest or weed control at 31 g/ha (wild oat; 31 g ai/ha): 30% | pest or weed control at 62 g/ha (wild oat; 62 g ai/ha): 35% | pest or weed control at 125 g/ha (wild oat; 125 g ai/ha): 35% | pest or weed control at 250 g/ha (wild oat; 250 g ai/ha): 55% | Cocklebur plant response rating (cocklebur; 31 g ai/ha, scale 0 to 100 (0 no effect, 100 complete control)): 0 | Plant response rating, Cocklebur (cocklebur; 125 g ai/ha): 0 | Plant response rating, Cocklebur (cocklebur; 250 g ai/ha): 50 | pest or weed control at 31 g/ha (field poppy [2]; 31 g ai/ha): 95% | pest or weed control at 62 g/ha (field poppy [2]; 62 g ai/ha): 100% | pest or weed control at 125 g/ha (field poppy [2]; 125 g ai/ha): 100% | pest or weed control at 250 g/ha (field poppy [2]; 250 g ai/ha): 100% | pest or weed control at 31 g/ha (bromegrass, downy [3]; 31 g ai/ha): 10% | pest or weed control at 62 g/ha (bromegrass, downy [3]; 62 g ai/ha): 15% | pest or weed control at 125 g/ha (bromegrass, downy [3]; 125 g ai/ha): 35% | pest or weed control at 250 g/ha (bromegrass, downy [3]; 250 g ai/ha): 75% | pest or weed control at 31 g/ha (field poppy [4]; 31 g ai/ha): 80% | pest or weed control at 62 g/ha (field poppy [4]; 62 g ai/ha): 85% | pest or weed control at 125 g/ha (field poppy [4]; 125 g ai/ha): 100% | pest or weed control at 250 g/ha (field poppy [4]; 250 g ai/ha): 100%
